# Assay results from patent US8034923B1, “Reagents for reversibly terminating primer extension” (priority 2009, dated 2011).
# Legend:
# [1] = Cleavage of 3′-O-aminothymidine 1b with aqueous HONO and no cosolvent; format: physicochemical
# Method: (§1) To an aqueous solution of 3′-O-aminothymidine (1b, 20 mM, 2 μL) was added aqueous nitrous acid (350-700 mM NaNO2/1 M NaOAc, 50 μL, pH 5.5-5.75). The resulting pH was measured with a microelectrode (accuracy ca. ±0.02). After 1 or 2 min at room temperature, the reaction was quenched by the addition of K-phosphate buffer (1 M, 200 μL, pH 7), and analyzed by analytical reverse-phase HPLC (Waters NovaPak C-18 4 μm, 3.9×150 mm, with guard column Waters NovaPak C-18 4 μm, 3.9×15 mm, eluent A=25 mM TEAA pH 7, eluent B=acetonitrile, gradient from 3% B to 13% B in 20 min, flow rate=0.5 mL/min, Rt=product: 8 min; starting material: 11 min.). The amount of cleavage was determined by integrating (267 nm) the peaks of the remaining 1b and the product (thymidine). The rates are as follows: As control, the natural nucleosides were treated as follows: An aqueous solution of 2′-deoxyguanosine or 2′-deoxyadenosine or 2′-deoxycytidine (20 mM, 30 μL) was treated with aqueous nitrous acid (700 mM NaNO2, 1 M NaOAc, pH 5.5, 500 μL) at room temperature for 72 h (i.e. 4320 min). An aliquot (50 μL) was removed, neutralized by the addition of K-phosphate buffer (1 M, 200 μL, pH 7), and analyzed by analytical reverse-phase HPLC (Waters NovaPak C-18 4 μm, 3.9×150 mm, with guard column Waters NovaPak C-18 4 μm, 3.9×15 mm. eluent A=25 mM TEAA pH 7, eluent B=acetonitrile, gradient from 0% B to 3% B in 10 min, then to 30% B in 20 min, flow rate=0.5 mL/min, Rt=dG: 14 min, dA: 18 min, dC: 8 min). The amount of decomposition was determined by integrating (260 nm) the peaks of the remaining starting material (nucleoside) and the product(s).
# [2] = target: T1, PD-42 (Taq A597T, L616A, F667Y, E745H) (Thermus aquaticus, UniProt P19821, A597T/E745H/F667Y/L616A); experiment: Primer extension / fidelity test with PD-42; format: biochemical; settings: 100 μM, 72° C.
# T1 construct: made in house; pASK-IBA43plus vector
# Method: (§2) Gamma-^32P-labeled primer SEQ ID 1 (2.5 pmol), cold primer SEQ ID 1 (22.5 pmol) and template SEQ ID 2 (30 pmol) were annealed by incubation at 95° C. for […] in NEB ThermoPol Reaction Buffer (20 mM Tris-HCl, 10 mM KCl, 10 mM (NH4)2SO4, 2 mM MgSO4, 0.1% TritonX-100) and slowly cooled to room temperature, followed by the addition of Taq cell-free extract (4 μL, the sole source of polymerase). Then, the mixture (final volume 10 μL) was pre-heated to 72° C. (30 sec), and the extension was initiated by adding either reversibly terminated or irreversibly terminated nucleoside triphosphates (final concentration of 100 μM) or both. After 2 mM, the reaction was quenched by 10 mM EDTA in formamide loading buffer (20 μL) and was resolved on a 14% PAGE (FIGS. 8 and 9).
# In a 10 μL reaction volume, γ^32P-labeled primer SEQ ID 1([…]), cold primer SEQ ID 1 ([…]) and four kinds of 36 nt long template ([…]) (see above) were annealed respectively by incubation at 95° C. for 5 min and slow cooled to room temperature. 1 (0.25 μg/μL) of PD-42 and 58 (polymerases were purified by Qiagen Ni-NTA Spin Kit) were then added to reactions and incubated at 72° C. for 2 min. Reactions were initiated by the addition of dNTP-ONH2 or ddNTP (Final concentration of 100 μM) (refer to FIG. 13 for specifics) and were resolved on a 14% PAGE.
# Two of the 93 variants that performed well with both dTTP-3′-ONH2 and ddTTP were further examined: PD-42 (A597T, L616A, F667Y, E745H) and PD-58 (E520G, K540I, L616A).
# [3] = system: 93 Taq polymerase variants from PD library; experiment: Standing start primer-extension assay, PD library screen; format: biochemical; settings: 100 μM triphosphate, 72° C., 2 min
# Method: as §2
# (§3) 93 Taq polymerase variants from PD library (Table 1) were tested for their ability to incorporate TTP-ONH2. Co-Taq polymerase and the Taq polymerase from New England Biolabs were also tested in parallel as controls. […] Of these variants, eight extended the primer by more than 50% to N+1, performing better than Co-Taq.
# To explore the potential of these variant polymerases to incorporate the corresponding 2′-, 3′-dideoxynucleotide, they were challenged with ddTTP (FIG. 9). A total of 27 variant polymerases were able to incorporate ddTTP to a detectable extent, while three of these variants converted more than 50% of the primer to n+1 product.
# [4] = target: T2, PD-58 (E520G, K540I, L616A) (Thermus aquaticus, UniProt P19821, E520G/K540I/L616A); experiment: Primer extension / fidelity test with PD-58; format: biochemical; settings: 100 μM, 72° C.
# T2 construct: made in house; pASK-IBA43plus vector
# Method: To determine whether HONO could cleave the 3′-terminal ONH2 group from a template-bound oligonucleotide and permit subsequent primer extension in a cycle of the type needed for sequencing using cyclic reversible termination, a 5′-biotinylated template that called for incorporation of two consecutive T's opposite the two consecutive template A′ s was used. Streptavidin on magnetic beads was used to recover products. In the first cycle, beads were incubated (72° C., 2 min) with PD-58 polymerase in the presence of T-ONH2 triphosphate (100 μM). Then, the products were treated with buffered sodium nitrite/HONO to cleave the —ONH2 group, generating a free 3′-OH group. […] This was indicated by a slower moving band arising from the reversibly terminated N+1 product.
# as §2, with “After 2 mM, the reaction was quenched by 10 mM EDTA in formamide loading buffer (20 μL) and was resolved on a 14% PAGE (FIGS. 8 and 9).” left out
# [5] = target: T3, Taq polymerase from New England Biolabs (Thermus aquaticus, UniProt P19821); experiment: Standing start primer-extension assay; format: biochemical; settings: 100 μM triphosphate, 72° C., 2 min
# T3 construct: purchased New England Biolabs
# Method: as §2, §3
# [6] = Treatment of natural nucleosides with aqueous nitrous acid (control, decomposition by HPLC); format: physicochemical; settings: 700 mM NaNO2, 1 M NaOAc, pH 5.5, room temperature; for oxidation 2 min (extrapolated): extrapolated to 2 min
# Method: as §1
# [7] = target: Terminal Transferase (TdT) (Bos taurus, UniProt P06526); experiment: Tailing of reversible terminators using terminal transferase; format: biochemical; settings: 5 μM to 250 μM terminator, 37° C., 1 hour, 8% PAGE
# Method: The oligonucleotide SEQ ID 1 was ^32P-5′ labeled using OptiKinase (USB Corporation). Pyrimidine tailing buffer reactions (20 μL) contained 100 mM cacodylate buffer (pH 7.1), 2 mM CoCl2, 0.1 mM DTT, […] of radiolabeled template (0.5 μM), 10 units of Terminal Transferase (TdT), and varying amounts of reversible terminator from 5 μM to 250 μM. Samples were incubated at 37° C. for 1 hour and were terminated by heating at 70° C. for 10 min. Samples were resolved on 8% PAGE. […] If treated with TdT and a composition of the instant invention, the ssDNA would be derivatized with a 3′-ONH2 group. This could then be captured by an aldehyde affixed to a solid support.
# [8] = [HONO] 700 mM, pH 5.50, room temperature
# T1 sequence (P19821 whole entry A597T/L616A/F667Y/E745H): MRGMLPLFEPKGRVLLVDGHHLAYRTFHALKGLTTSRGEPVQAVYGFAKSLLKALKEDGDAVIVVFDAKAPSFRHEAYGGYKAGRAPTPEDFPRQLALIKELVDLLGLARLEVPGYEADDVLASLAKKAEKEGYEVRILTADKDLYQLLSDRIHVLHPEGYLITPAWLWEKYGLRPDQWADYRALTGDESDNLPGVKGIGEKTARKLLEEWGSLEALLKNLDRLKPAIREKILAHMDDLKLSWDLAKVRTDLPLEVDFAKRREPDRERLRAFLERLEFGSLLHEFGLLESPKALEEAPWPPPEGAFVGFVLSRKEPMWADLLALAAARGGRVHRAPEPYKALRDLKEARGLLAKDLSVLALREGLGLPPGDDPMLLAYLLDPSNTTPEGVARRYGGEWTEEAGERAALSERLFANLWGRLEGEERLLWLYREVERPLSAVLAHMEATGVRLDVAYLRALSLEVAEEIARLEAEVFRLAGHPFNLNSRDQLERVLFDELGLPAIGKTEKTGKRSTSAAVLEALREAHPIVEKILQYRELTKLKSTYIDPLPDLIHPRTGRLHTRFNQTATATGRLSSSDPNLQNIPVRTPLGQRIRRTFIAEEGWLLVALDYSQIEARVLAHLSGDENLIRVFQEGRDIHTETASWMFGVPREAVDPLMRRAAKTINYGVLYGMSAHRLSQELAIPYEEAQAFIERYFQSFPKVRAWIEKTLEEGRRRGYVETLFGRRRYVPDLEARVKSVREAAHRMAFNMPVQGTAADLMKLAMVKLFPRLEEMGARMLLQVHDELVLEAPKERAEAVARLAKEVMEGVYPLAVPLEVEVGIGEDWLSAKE
# Terminal Transferase (TdT), sequence (P06526 whole entry): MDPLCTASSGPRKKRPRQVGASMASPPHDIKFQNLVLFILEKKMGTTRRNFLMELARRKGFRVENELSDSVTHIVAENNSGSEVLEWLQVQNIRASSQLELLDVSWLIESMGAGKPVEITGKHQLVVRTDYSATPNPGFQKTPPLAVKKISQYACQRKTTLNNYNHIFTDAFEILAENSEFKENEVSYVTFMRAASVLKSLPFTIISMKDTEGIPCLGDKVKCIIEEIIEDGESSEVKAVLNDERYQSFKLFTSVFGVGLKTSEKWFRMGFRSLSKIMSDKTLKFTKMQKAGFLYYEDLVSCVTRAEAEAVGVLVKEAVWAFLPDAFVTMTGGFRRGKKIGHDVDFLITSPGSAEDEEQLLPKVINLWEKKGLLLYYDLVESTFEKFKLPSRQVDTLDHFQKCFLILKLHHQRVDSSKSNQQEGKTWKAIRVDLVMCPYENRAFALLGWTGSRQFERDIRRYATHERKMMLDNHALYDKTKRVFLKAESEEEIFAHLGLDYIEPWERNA
# T2 sequence (P19821 whole entry E520G/K540I/L616A): as the sequence (P19821 whole entry A597T/L616A/F667Y/E745H) above, with E520G, K540I, T597A, Y667F, H745E counted along it
# T3 sequence (P19821 whole entry): as the sequence (P19821 whole entry A597T/L616A/F667Y/E745H) above, with T597A, A616L, Y667F, H745E counted along it
smiles,measurement,setting,value
"Cc1cn([C@H]2C[C@H](ON)[C@@H](CO)O2)c(=O)[nH]c1=O [1b, 3′-O-aminothymidine]",cleavage 2 min,"[1]; [HONO] 350 mM, pH 5.50, room temperature",90%
same,cleavage 1 min,[1]; [8],98%
same,cleavage 2 min,[1]; [8],>99%
same,cleavage 2 min,"[1]; [HONO] 700 mM, pH 5.65, room temperature",96%
"Cc1cn([C@H]2C[C@H](ON)[C@@H](COP(=O)(O)OP(=O)(O)OP(=O)(O)O)O2)c(=O)[nH]c1=O [TTP-ONH2, 3′-O-Amino-thymidine-5′-triphosphate]",incorporation by PD-42,[2]; PD library screen,best incorporation
same,number of variant polymerases able to incorporate better than NEB Taq,[3],30
same,number of variants that extended more than 50% of the primer to N+1,[3],eight
same,share of the PD library mutants able to incorporate better than NEB Taq,[3],32.3%
same,incorporation by PD-58,[4]; PD library screen,best incorporation
same,primer extension and termination by PD-58,"[4]; template on streptavidin magnetic beads, 2 min",clean N+1 products
same,N+1 product on incorporation,[5],at most a trace of N+1 product
"Nc1ncnc2c1ncn2[C@H]1C[C@H](O)[C@@H](CO)O1 [dA, 2′-deoxyadenosine]",oxidation 72 h,[6],13%
same,oxidation 2 min (extrapolated),[6],<1/10000
"NO[C@H]1C[C@H](n2cnc3c(N)ncnc32)O[C@@H]1COP(=O)(O)OP(=O)(O)OP(=O)(O)O [dATP-ONH2, 3′-O-Amino-2′-deoxyadenosine-5′-triphosphate]",misincorporation product opposite template A (SEQ ID 3) by PD-42,[2]; PAGE,trace amounts of products
"Nc1ccn([C@H]2C[C@H](O)[C@@H](CO)O2)c(=O)n1 [dC, 2′-deoxycytidine]",oxidation 72 h,[6],15%
same,oxidation 2 min (extrapolated),[6],<1/10000
"NO[C@H]1C[C@H](n2ccc(N)nc2=O)O[C@@H]1COP(=O)(O)OP(=O)(O)OP(=O)(O)O [dCTP-ONH2, 3′-O-Amino-2′-deoxycytidine-5′-triphosphate]",primer consumption on TdT tailing,[7],almost all of the primer was remaining
same,misincorporation product opposite template dC by PD-42,[2]; PAGE,trace amounts of products
"Nc1nc2c(ncn2[C@H]2C[C@H](O)[C@@H](CO)O2)c(=O)[nH]1 [dG, 2′-deoxyguanosine]",oxidation 72 h,[6],20%
same,oxidation 2 min (extrapolated),[6],<1/10000
"NO[C@H]1C[C@H](n2cnc3c(=O)[nH]c(N)nc32)O[C@@H]1COP(=O)(O)OP(=O)(O)OP(=O)(O)O [dGTP-ONH2, 3′-O-Amino-2′-deoxyguanosine-5′-triphosphate]",primer consumption on TdT tailing,[7],Almost all of the primer was exhausted
"Cc1cn([C@H]2CC[C@@H](COP(=O)(O)OP(=O)(O)OP(=O)(O)O)O2)c(=O)[nH]c1=O [ddTTP, 2′,3′-dideoxythymidine-5′-triphosphate, reference compound]",number of variant polymerases able to incorporate to a detectable extent,[3],27
same,number of variants that extended more than 50% of the primer to N+1,[3],three
